{"source": "patent US8211940B2", "about": "(Debiopharm S.A., priority 2001, dated 2012)", "test_system": "CD-1 mice", "from_the_text": "Lethal doses LD10 of a cytostatic active substance determinated in mice is generally considered as being a significative correlation with the maximum tolerated doses (MTD) in man.", "note": "Like-named read-outs stand apart in the source and are kept apart here."}
{"molecule": "O=C1[O][Pt]2([NH]C3CCCCC3[NH]2)[O]C1=O", "note": "(stereo not drawn) [Example 1, cis-oxalate (trans l-1,2-cyclohexanediamine)-platinum (II)]", "values": [{"measurement": "LD10", "setting": "same solution with addition of oxalic acid at a final concentration of 0.2 mM (second group)", "value": "around 14.4"}, {"measurement": "LD10", "setting": "solution of the oxaliplatin active substance alone (first group)", "value": "around 18.0 mg/kg"}]}
